Entries after “also recorded” stand apart in the source; their conditions may differ. Where a name gives a salt, the structure may show the parent alone. Read-outs that look alike come from different tables or passages of the source.
Key:
A/NY/61/LV16A (H1N1) [1] = assay: CPE inhibition assay; type: cell-based
A/17/HK/2014/8296 (H3N2) = assay: CPE inhibition assay; type: cell-based
[2] = tested on: A/Maonan/SWL1536/2019 (H1N1); assay: CPE inhibition assay; type: cell-based
B/Washington/02/2019 = assay: CPE inhibition assay; type: cell-based
in vitro [3] = conditions: dog
[4] = tested on: Corynebacterium diphtheriae; set-up: method as in PMID 29138439; conditions: cited from earlier work
Ebola virus = conditions: cited from earlier work
HSV-2 = conditions: cited from earlier work
A/NY/61/LV16A (H1N1) [5] = assay: Viral nucleoprotein (NP) by Western blotting; type: cell-based, influenza virus
A/NY/61/LV16A (H1N1) [6] = assay: H1N1 NP mRNA by qRT-PCR in A549 cells treated with autophagy inhibitors; type: cell-based, influenza virus
[7] = tested on: influenza virus strains (H1N1, H3N2, influenza B virus); assay: CPE inhibition assay, all influenza virus strains tested; type: cell-based; conditions: unidentified influenza virus; range over five strains, MDCK cells; read-out: EC50 values ranging, all influenza virus strains tested
A/NY/61/LV16A (H1N1) [8] = assay: H1N1 RNA replication by qRT-PCR in MDCK cells; type: cell-based, influenza virus
A/NY/61/LV16A (H1N1) [9] = type: in vivo, BALB/c mice; conditions: for survival rate: 5 mg/kg i.p. once daily for 6 days, H1N1 i.n., 14 days; for H1N1 virus titers in the lungs compared to placebo / lung histopathology changes (H&E) / lung index compared to placebo / lung viral load compared to placebo: mouse, in vivo, ip
A/NY/61/LV16A (H1N1) [10] = type: cell-based; conditions: 15 μM, A549 cells, MOI = 1, 16 hpi, vs virus control
A/NY/61/LV16A (H1N1) [11] = assay: Binding assay; type: cell-based, influenza virus
A/NY/61/LV16A (H1N1) [12] = assay: Entry assay; type: cell-based, influenza virus
Rab7 = type: cell-based; conditions: 15 µM, A549 cells, 3 hpi
LC3B-II and p62 = assay: Autophagy markers by Western blotting in A549 cells; type: cell-based; conditions: dose- and time-dependent
A/NY/61/LV16A (H1N1) [13] = assay: Time of addition assay; type: cell-based, influenza virus
[14] = uninfected mice, 5 mg/kg i.p.
in vitro [15] = conditions: human
[16] = Cytotoxicity, CellTiter-Glo cell viability; conditions: dog, uninfected MDCK cells
[17] = Influenza A virus, H1N1, MDCK; read-out: EC50 ± SD A/NY/61/LV16A (H1N1)
[18] = Influenza A virus, H3N2, MDCK; read-out: EC50 ± SD A/17/HK/2014/8296 (H3N2)
[19] = Influenza A virus, H1N1, MDCK; read-out: EC50 ± SD A/Maonan/SWL1536/2019 (H1N1)
[20] = Influenza A virus, H1N1; MDCK cells; read-out: EC90 (approximately)
[21] = Influenza B virus; B/M2; infected MDCK cells, MOI = 0.01, 48 hpi; read-out: EC50 ± SD B/Washington/02/2019

Structure (SMILES): CCOC(=O)C1=C[C@@H](OC(CC)CC)[C@H](NC(C)=O)[C@@H](N)C1 [Oseltamivir, Oseltamivir phosphate]
- EC50 (A/NY/61/LV16A (H1N1) [1]; [17]): 7.97 ± 0.85 µM
- EC50 (A/17/HK/2014/8296 (H3N2); [18]): 7.3 ± 0.79 µM
- EC50 [2, 19]: 2.95 ± 0.21 µM
- EC50 (B/Washington/02/2019; Influenza B virus, MDCK; read-out: EC50 ± SD B/Washington/02/2019): 8.53 ± 1.64 µM
- CC50 at 72 h (in vitro [3]): 1890 ± 71.8 µM

Structure (SMILES): CC12CC3CC(C)(C1)CC(N)(C3)C2 [memantine]
- activity against Corynebacterium diphtheriae [4]: inactive
- activity against Ebola virus (Ebola virus): inactive
- activity against HSV-2 infection (HSV-2): inactive

Structure (SMILES): CC(N)C12CC3CC(CC(C3)C1)C2 (stereo not shown) [1-(1-adamantyl) ethylamine]
- activity against Corynebacterium diphtheriae [4]: inactive
- activity against Ebola virus (Ebola virus): inactive
- activity against HSV-2 infection (HSV-2): inactive

Structure (SMILES): CCN(CC)CCCC(C)Nc1ccnc2cc(Cl)ccc12 (stereo not shown) [Chloroquine, reference compound]
- EC50 (A/NY/61/LV16A (H1N1) [1]; [17]): 17.1 ± 2.27 µM
- EC50 (A/17/HK/2014/8296 (H3N2); [18]): 12 ± 1.26 µM

Structure (SMILES): CO/C1=C\C(C)=C\[C@@H](C)[C@@H](O)[C@@H](C)C/C(C)=C/C=C/[C@H](OC)[C@@H]([C@@H](C)[C@@H](O)[C@H](C)[C@@]2(O)C[C@@H](O)[C@H](C)[C@@H](C(C)C)O2)OC1=O [Baf A1, Bafilomycin A1, reference compound]
- NP expression levels (Western blot) (A/NY/61/LV16A (H1N1) [5]): decreased
- H1N1 RNA content (A/NY/61/LV16A (H1N1) [6]): significantly decreased

Structure (SMILES): COc1ccc(Br)cc1CNC12CC3CC(CC(C3)C1)C2 [ABMA, 1-adamantyl (5-bromo-2-methoxybenzyl) amine]
- EC50 (A/NY/61/LV16A (H1N1) [1]; [17]): 3.25 ± 0.17 µM
- EC90 (A/NY/61/LV16A (H1N1) [1]; [20]): ~15 µM
- EC50 (A/17/HK/2014/8296 (H3N2); [18]): 5.58 ± 0.38 µM
- EC50 [2, 19]: 4.57 ± 0.33 µM
- EC50 (B/Washington/02/2019; [21]): 7.36 ± 0.65 µM
- EC50 [7]: 2.83 to 7.36 µM
- inhibition of H1N1 RNA replication (qRT-PCR) (A/NY/61/LV16A (H1N1) [8]): 81.77%
- survival rate (A/NY/61/LV16A (H1N1) [9]): 67%
- H1N1 virus titers in the lungs compared to placebo (A/NY/61/LV16A (H1N1) [9]): lower titers
- lung histopathology changes (H&E) (A/NY/61/LV16A (H1N1) [9]): significant reduction
- lung index compared to placebo (A/NY/61/LV16A (H1N1) [9]): significantly reduced
- lung viral load compared to placebo (A/NY/61/LV16A (H1N1) [9]): significantly reduced
- NP expression levels (Western blot) (A/NY/61/LV16A (H1N1) [5]): reduced; also recorded: decreased
- NP fluorescence signal (A/NY/61/LV16A (H1N1) [10]): significantly decreased
- binding of the virus to cells (A/NY/61/LV16A (H1N1) [11]): do not affect
- entry stage of H1N1 (A/NY/61/LV16A (H1N1) [12]): significantly inhibited
- Rab7 protein fluorescence (Rab7): largely increased
- LC3B-II level (LC3B-II and p62): increased
- p62 level (LC3B-II and p62): increased
- H1N1 RNA content, time of addition (A/NY/61/LV16A (H1N1) [13]): significantly reduced
- changes in animal behavior, lethargy and body weight [14]: No remarkable changes
- CC50 at 72 h (in vitro [3]): 72.3 ± 1.09 µM
- CC50 (in vitro [15]): 83.8 ± 1.92 µM

Structure (SMILES): NC12CC3CC(CC(C3)C1)C2 [Amantadine, Amantadine hydrochloride]
- EC50 (A/NY/61/LV16A (H1N1) [1]; [17]): 9.97 ± 1.34 µM
- EC50 (A/17/HK/2014/8296 (H3N2); [18]): 8.27 ± 0.66 µM
- EC50 [2, 19]: 20.2 ± 1.36 µM
- antiviral activity against B/Washington/02/2019 (IBV) (B/Washington/02/2019): did not show antiviral activity; also recorded: no significant protection
- EC50 (B/Washington/02/2019; Influenza B virus, MDCK, read-out: EC50 ± SD B/Washington/02/2019): > 100 µM
- activity against Corynebacterium diphtheriae [4]: inactive
- activity against Ebola virus (Ebola virus): inactive
- activity against HSV-2 infection (HSV-2): inactive
- CC50 (in vitro [3]): 477 ± 39.5 µM

Structure (SMILES): Cn1cnc(N)c2ncnc1-2 [3-MA, 3-methyladenine]
- H1N1 RNA content (A/NY/61/LV16A (H1N1) [6]): significantly decreased

Structure (SMILES): COc1ccc(Br)cc1CNC12CC3CC(C)(CC(C)(C3)C1)C2 [DABMA, 1,3-dimethyl-1-adamantyl (5-bromo-2-methoxybenzyl) amine]
- EC50 (A/NY/61/LV16A (H1N1) [1]; [17]): 1.82 ± 0.11 µM
- EC90 (A/NY/61/LV16A (H1N1) [1]; [20]): ~15 µM
- EC50 (A/17/HK/2014/8296 (H3N2); [18]): 6.73 ± 0.73 µM
- EC50 [2, 19]: 2.69 ± 0.26 µM
- EC50 (B/Washington/02/2019; [21]): 6.62 ± 0.46 µM
- EC50 [7]: 1.82 to 6.73 µM
- inhibition of H1N1 RNA replication (qRT-PCR) (A/NY/61/LV16A (H1N1) [8]): 86.51%
- survival rate (A/NY/61/LV16A (H1N1) [9]): 67%
- H1N1 virus titers in the lungs compared to placebo (A/NY/61/LV16A (H1N1) [9]): lower titers
- lung histopathology changes (H&E) (A/NY/61/LV16A (H1N1) [9]): significant reduction
- lung index compared to placebo (A/NY/61/LV16A (H1N1) [9]): significantly reduced
- lung viral load compared to placebo (A/NY/61/LV16A (H1N1) [9]): significantly reduced
- NP expression levels (Western blot) (A/NY/61/LV16A (H1N1) [5]): reduced
- NP fluorescence signal (A/NY/61/LV16A (H1N1) [10]): significantly decreased
- binding of the virus to cells (A/NY/61/LV16A (H1N1) [11]): do not affect
- entry stage of H1N1 (A/NY/61/LV16A (H1N1) [12]): significantly inhibited
- H1N1 RNA content, time of addition (A/NY/61/LV16A (H1N1) [13]): significantly reduced
- changes in animal behavior, lethargy and body weight [14]: No remarkable changes
- CC50 at 72 h (in vitro [3]): 42.7 ± 1.46 µM
- CC50 (in vitro [15]): 47.4 ± 1.68 µM

Structure (SMILES): NC(=O)c1ncn([C@@H]2O[C@H](CO)[C@@H](O)[C@H]2O)n1 [Ribavirin, ribavirin]
- EC50 (A/NY/61/LV16A (H1N1) [1]; Influenza A virus, H1N1, MDCK, read-out: EC50 ± SD A/NY/61/LV16A (H1N1)): 1.61 ± 0.62 µM
- EC50 (A/17/HK/2014/8296 (H3N2); Influenza A virus, H3N2, MDCK, read-out: EC50 ± SD A/17/HK/2014/8296 (H3N2)): 0.13 ± 0.04 µM
- EC50 ([2]; Influenza A virus, H1N1, MDCK, read-out: EC50 ± SD A/Maonan/SWL1536/2019 (H1N1)): 3.2 ± 0.34 µM
- EC50 (B/Washington/02/2019; [21]): 3.02 ± 0.39 µM
- CC50 at 72 h [16]: 5480 ± 255 µM

Reference: paper PMC8999625, “Antiviral Effects of ABMA and DABMA against Influenza Virus In Vitro and In Vivo via Regulating the Endolysosomal Pathway and Autophagy” (International Journal of Molecular Sciences, 2022)
